Common to all, as to assay type: biochemical
Assay [1] has as its target T1, delta receptors, mouse brain (Mus musculus, UniProt P32300).
T1 construct: from tissue; host or cells: mouse brain homogenate
In words: GTP[γ]35S binding functional assay, homogenised mouse brain membranes. How it is done: (§1) B. Mouse and rat brains were weighed and rinsed in ice-cold PBS (containing 2.5 mM EDTA, pH 7.4). The brains were homogenized with a polytron for 15 sec (mouse) or 30 sec (rat) in ice-cold lysis buffer (50mM Tris, pH 7.0, 2.5mM EDTA, with phenylmethylsulfonyl fluoride added just prior use to […] from a 0.5 M stock in DMSO:ethanol).
(§2) The agonist activity of the compounds is measured by determining the degree to which the compounds receptor complex activates the binding of GTP to G-proteins to which the receptors are coupled. In the GTP binding assay, GTP[γ]^35S is combined with test compounds and membranes from HEK-293S cells expressing the cloned human opioid receptors or from homogenised rat and mouse brain. Agonists stimulate GTP[γ]^35S binding in these membranes. The EC50 and Emax values of compounds are determined from dose-response curves. Right shifts of the dose response curve by the delta antagonist naltindole are performed to verify that agonist activity is mediated through delta receptors.

The target of a further assay is T2, cloned human δ receptor (Homo sapiens, UniProt P41143).
T2 construct: expressed in transfected cells; host or cells: human 293S (HEK-293S) cells, geneticin-selected
In words: GTP[γ]35S binding functional assay, membranes from HEK-293S cells expressing cloned human opioid receptors (HDELTA). How it is done:
A. Human 293S cells expressing cloned human μ, δ, and κ receptors and neomycin resistance were grown in suspension at 37° C. and 5% CO2 in shaker flasks containing calcium-free DMEM10% FBS, 5% BCS, 0.1% Pluronic F-68, and 600 μg/ml geneticin.
Cells were pelleted and resuspended in lysis buffer (50 mM Tris, pH 7.0, 2.5 mM EDTA, with PMSF added just prior to use to 0.1 mM from a 0.1 M stock in ethanol), incubated on ice for 15 min, then homogenized with a polytron for 30 sec. The suspension was spun at 1000 g (max) for 10 min at 4° C. The supernatant was saved on ice and the pellets resuspended and spun as before. The supernatants from both spins were combined and spun at 46,000 g (max) for 30 min. The pellets were resuspended in cold Tris buffer (50 mM Tris/Cl, pH 7.0) and spun again. The final pellets were resuspended in membrane buffer (50 mM Tris, […], pH 7.0). Aliquots (1 ml) in polypropylene tubes were frozen in dry ice/ethanol and stored at −70° C. until use. The protein concentrations were determined by a modified Lowry assay with sodium dodecyl sulfate.
as §2
For orientation: Binding of GTPγS marks nucleotide exchange on a G protein.

The target of assay [2] is T3, delta receptors, rat brain (Rattus norvegicus, UniProt P33533).
T3 construct: from tissue; host or cells: rat brain homogenate
In words: GTP[γ]35S binding functional assay, homogenised rat brain membranes. How it is done: as §1, §2

The text below walks through data of patent publication US6753335B2, “Quinolinyl-piperidin-4-ylidene-methyl-benzamide derivatives for the treatment of pain” (AstraZeneca AB, priority 2000, dated 2004).

T2 sequence (P41143 whole entry): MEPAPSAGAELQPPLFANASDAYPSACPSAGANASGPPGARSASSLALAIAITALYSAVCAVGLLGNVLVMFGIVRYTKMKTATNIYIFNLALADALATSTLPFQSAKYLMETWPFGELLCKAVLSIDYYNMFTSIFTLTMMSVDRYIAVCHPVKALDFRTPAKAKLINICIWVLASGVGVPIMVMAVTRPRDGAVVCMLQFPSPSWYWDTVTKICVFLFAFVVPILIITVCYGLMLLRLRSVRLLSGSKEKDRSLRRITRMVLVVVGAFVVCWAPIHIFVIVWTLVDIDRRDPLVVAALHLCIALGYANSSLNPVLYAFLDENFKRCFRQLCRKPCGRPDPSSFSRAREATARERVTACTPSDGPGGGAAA
T3 sequence (P33533 whole entry): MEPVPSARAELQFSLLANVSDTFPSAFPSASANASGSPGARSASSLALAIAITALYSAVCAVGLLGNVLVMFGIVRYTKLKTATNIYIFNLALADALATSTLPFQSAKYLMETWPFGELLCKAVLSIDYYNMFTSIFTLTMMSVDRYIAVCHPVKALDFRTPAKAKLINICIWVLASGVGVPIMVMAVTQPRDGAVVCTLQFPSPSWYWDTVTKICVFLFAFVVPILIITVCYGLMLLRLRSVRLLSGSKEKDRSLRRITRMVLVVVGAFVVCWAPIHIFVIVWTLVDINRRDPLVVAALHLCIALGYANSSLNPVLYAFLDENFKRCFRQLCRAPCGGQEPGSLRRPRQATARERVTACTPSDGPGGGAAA
T1 sequence (P32300 whole entry): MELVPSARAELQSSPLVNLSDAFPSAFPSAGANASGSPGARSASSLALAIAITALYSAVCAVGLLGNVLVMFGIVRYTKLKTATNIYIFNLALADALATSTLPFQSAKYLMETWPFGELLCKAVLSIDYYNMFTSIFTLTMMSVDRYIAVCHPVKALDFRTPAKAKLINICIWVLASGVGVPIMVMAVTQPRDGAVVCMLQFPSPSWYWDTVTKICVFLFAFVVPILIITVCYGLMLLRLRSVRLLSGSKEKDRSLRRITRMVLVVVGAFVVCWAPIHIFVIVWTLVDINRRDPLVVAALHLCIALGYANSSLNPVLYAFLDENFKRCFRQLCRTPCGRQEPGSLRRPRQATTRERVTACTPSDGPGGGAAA

As for `CCN(CC)C(=O)c1ccc(C(=C2CCN(Cc3ccsc3)CC2)c2cccc3cccnc23)cc1` [Example 6, N,N-diethyl-4-{8-quinolinyl[1-(3-thienylmethyl)-4-piperidinylidene]methyl}benzamide], the results for the maximal response (Emax) (in assay [1]; at cloned human δ receptor; in assay [2]) were 140%, 123% and 135%, respectively.

Regarding `CCN(CC)C(=O)c1ccc(C(=C2CCN(Cc3ccco3)CC2)c2cccc3cccnc23)cc1` [Example 3, N,N-diethyl-4-[[1-(2-furylmethyl)-4-piperidinylidene](8-quinoline)methyl]benzamide], the results for the Emax (in assay [1]; on cloned human δ receptor; in assay [2]) were 146%, 103% and 130%, respectively.

Consider `CCN(CC)C(=O)c1ccc(C(=C2CCN(Cc3ccncc3)CC2)c2cccc3cccnc23)cc1` [Example 10], for which the figures for the maximum response (Emax) (in assay [1]; on cloned human δ receptor; in assay [2]) were 110%, 118% and 109%, respectively.

Turning to `CCN(CC)C(=O)c1ccc(C(=C2CCN(Cc3c[nH]cn3)CC2)c2cccc3cccnc23)cc1` [Example 9], the Emax (in general, the maximal effect, on the per cent scale that the assay sets) in assay [1] worked out at 123%; at cloned human δ receptor, 100%; in assay [2], 112%.

On to `CCN(CC)C(=O)c1ccc(C(=C2CCN(Cc3ccccn3)CC2)c2cccc3cccnc23)cc1` [Example 7], for which the maximum response (Emax) in assay [1] is 124%; at cloned human δ receptor, 97.6%; in assay [2] it was 126%.

`CCN(CC)C(=O)c1ccc(C(=C2CCN(Cc3ncc[nH]3)CC2)c2cccc3cccnc23)cc1` [Example 8]: the results for the Emax (in assay [1]; at cloned human δ receptor; in assay [2]) were 138%, 111% and 148%, respectively.

Take `CCN(CC)C(=O)c1ccc(C(=C2CCN(Cc3ccoc3)CC2)c2cccc3cccnc23)cc1` [Example 5, N,N-diethyl-4-[[1-(3-furylmethyl)-4-piperidinylidene](8-quinolinyl)methyl]benzamide]: the Emax in assay [1] is 147%; on cloned human δ receptor, 99%; in assay [2], 135%.

Regarding `CCN(CC)C(=O)c1ccc(C(=C2CCN(Cc3ccccc3)CC2)c2cccc3cccnc23)cc1` [Example 2, N,N-diethyl-4-(8-quinolinyl-N-benzyl-piperidin-4-ylidene-methyl)-benzamide], the maximum response (Emax) was 112% in assay [1], 90.5% on cloned human δ receptor and 104% in assay [2].

`CCN(CC)C(=O)c1ccc(C(=C2CCN(Cc3cccs3)CC2)c2cccc3cccnc23)cc1` [Example 4, N,N-diethyl-4-{8-quinolinyl[1-(2-thienylmethyl)-4-piperidinylidene]methyl}benzamide]: the maximal effect (Emax) in assay [1] was 140%; at cloned human δ receptor, 98.5%; in assay [2], 120%.
